Data published in patent US20020045764A1, “Tubulin binding compounds (COBRA)” (Parker Hughes Institute, priority 1998, published 2002).

Experiments:
U87 = test: MTT assay; assay type: cell-based, human; details: 24-36 hours
Experimental: (§1) The antiproliferative activity of […] and the control mono-THF containing compounds 8.2, 8.3, and 8.4 was examined against a panel of 5 different human tumor cell lines using standard MTT (3-[4,5-dimethylthiazol-2-yl]-2,5-diphenyl tetrazolium bromide) assays^18 (Boehringer Mannheim Corp., Indianapolis, Ind.).
(§2) Briefly, exponentially growing brain tumor cells were seeded into a 96-well plate at a density of 2.5×10^4 cells/well and incubated for 36 hours at 37° C. prior to drug exposure. On the day of treatment, culture medium was carefully aspirated from the wells and replaced with fresh medium containing the test or control compounds at concentrations ranging from 0.1 to 250 μM. Triplicate wells were used for each treatment. The cells were incubated with the various compounds for 24-36 hours at 37° C. in a humidified 5% CO2 atmosphere. To each well, 10 μl of MTT (0.5 mg/ml final concentration) was added and the plates were incubated at 37° C. for 4 hours to allow MTT to form formazan crystals by reacting with metabolically active cells . The formazan crystals were solubilized overnight at 37° C. in a solution containing 10% SDS in 0.01 M HCl. The absorbence of each well was measured in a microplate reader (Labsystems) at 540 nm and a reference wavelength of 690 nm. To translate the OD 540 values into the number of live cells in each well, the OD540 values were compared to those on standard OD540-versus-cell number curves generated for each cell line. The percent survival was calculated using the formula: % survival=Live cell number[test]×100/Live cell number[control].
(§3) IC50 values were calculated by non-linear regression analysis using an Graphpad Prism software version 2.0 (Graphpad Software, Inc., San Diego, Calif.).
(§4) The following human cancer cell lines were used in the present study: BT-20, breast cancer; MDA-MB-231, breast cancer; PC3, prostate cancer; U87 and U373, glioblastoma; NALM-6, B-lineage acute lymphoblastic leukemia. These cell lines were obtained from American Type Culture Collection (Manassas, Va.) and maintained as continuous cell lines in Dulbecco's modified Eagles's medium supplemented with 10% fetal bovine serum and antibiotics.

PC-3 = test: MTT assay; assay type: cell-based, human; details: 24-36 hours
Experimental: as §1, §2, §3, §4

MDA-MB-231 = test: MTT assay; assay type: cell-based, human; details: 24-36 hours
Experimental: as §1, §2, §3, §4

NALM-6 = test: MTT assay; assay type: cell-based, human; details: 24-36 hours
Experimental: as §1, §2, §3, §4

SQ20B = test: MTT assay; assay type: cell-based, human; details: 24-36 hours
Experimental: as §1, §2, §3

Nalm-6 leukemia cells = test: Transmission electron microscopy; assay type: cell-based, human; parameters: dose or concentration left out as unconfirmed
Bovine brain tubulin = molecular target: T1, Bovine brain tubulin (Bos taurus, UniProt P81947+Q6B856); test: Tubulin turbidity assay (GTP-induced tubulin polymerization); assay type: biochemical; details: 1 mg/ml tubulin, 1 mM GTP, 37° C., OD 350 nm
T1 construct: purchased Sigma, St. Louis, Mo; host or cells: bovine brain (tissue-purified)
T1 sequence (P81947 whole entry): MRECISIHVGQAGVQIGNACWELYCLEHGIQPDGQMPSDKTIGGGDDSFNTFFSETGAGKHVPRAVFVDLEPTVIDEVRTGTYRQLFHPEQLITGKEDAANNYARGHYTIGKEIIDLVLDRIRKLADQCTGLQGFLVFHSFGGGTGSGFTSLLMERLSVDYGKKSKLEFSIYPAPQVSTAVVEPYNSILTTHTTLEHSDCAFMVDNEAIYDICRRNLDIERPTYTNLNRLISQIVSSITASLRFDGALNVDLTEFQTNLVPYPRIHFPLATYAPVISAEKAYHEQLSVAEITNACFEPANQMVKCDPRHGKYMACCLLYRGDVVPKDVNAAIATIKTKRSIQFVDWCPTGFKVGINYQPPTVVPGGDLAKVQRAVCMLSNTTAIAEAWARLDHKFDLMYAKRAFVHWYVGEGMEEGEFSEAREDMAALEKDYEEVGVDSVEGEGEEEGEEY
T1 sequence (Q6B856 whole entry): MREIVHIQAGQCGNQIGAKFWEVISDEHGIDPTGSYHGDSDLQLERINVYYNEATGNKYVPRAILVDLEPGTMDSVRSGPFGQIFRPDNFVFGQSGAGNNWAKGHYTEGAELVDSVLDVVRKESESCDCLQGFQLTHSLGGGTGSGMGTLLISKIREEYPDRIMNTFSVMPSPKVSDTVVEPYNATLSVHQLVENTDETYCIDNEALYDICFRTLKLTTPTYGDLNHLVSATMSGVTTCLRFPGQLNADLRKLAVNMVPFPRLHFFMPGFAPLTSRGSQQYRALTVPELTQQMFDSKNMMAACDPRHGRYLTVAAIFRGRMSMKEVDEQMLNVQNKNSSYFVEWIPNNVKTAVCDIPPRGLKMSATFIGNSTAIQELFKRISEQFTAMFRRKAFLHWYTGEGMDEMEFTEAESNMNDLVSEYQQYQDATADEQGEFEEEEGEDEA
Experimental: Bovine brain tubulin (Sigma, St. Louis, Mo.) was used in standard turbidity assays to test the effects of compounds COBRA-1 and COBRA-2 as well as control compounds on GTP-induced tubulin polymerization. Compounds (in 1% DMSO) were added to tubulin (1 mg/ml, 0.1M MES, 1 mM EGTA, 0.5 mM MgCl2, 0.1 mM EDTA, 2.5M glycerol, 1 μg/ml leupeptin, 1 μg/ml aprotinin, pH 6.5) followed by stimulation of polymerization with 1 mM GTP at 2 minutes and 1 mM taxol at 30 minutes. Optical density was measured using a Becton Dickinson UV spectrophotometer (350 nm) using a thermostated cuvette holder to keep the reaction at 37° C. Readings obtained from the spectro-photometer were standardized by subtracting the background absorbance of the compound in water from the sample reading following drug addition.
To test the latitude of the structure at the opposite end of the molecule from the long chain (head region), three new COBRA compounds were synthesized according to the schemes shown below: COBRA-3, COBRA-4, and COBRA-5. Each of these compounds was then tested for tubulin depolymerization activity, using the tubidity assay described in the Examples above.
Each of these compounds was assayed for effects on GTP-dependent tubulin polymerization, using the methods described above.

[1] = tested on: zebrafish (ZF) (Danio rerio) embryos; test: Zebrafish embryo model, cell division and development; assay type: in vivo
Experimental: ZF eggs were removed from their chorions by mild digestion in 1% Trypsin-EDTA (Sigma) for 10 minutes at 28.5° C. (Standard temperature—ST), washed three times in “egg water”^15-16 and twice in “embryonic medium” (EM)^15-16. The dechorionated two-cell stage cleaving eggs/embryos were transferred to the 24-well plastic cell culture plates (Costar, City, State) filled with EM or Hank's Balanced Salt Saline (HBSS, Gibco, City, State). Dechorionated embryos (10-12 per well) were exposed to the drugs at a constant ST for 0.5-24 hours. The final volume of the media in each well was 500 μL. All reference as well as test compounds were used at concentrations ranging from 10 μM to 4 mM. The title compounds were dissolved in DMSO and then diluted serially with the incubation medium. The final concentration of DMSO in the wells was 1.2% (with the exception of the etoposide treatment where it was 3%). The sham-treated control embryos were incubated in EM or HBSS in the presence of 1.2% (or 3%) DMSO.
Observations of cell division and development of the ZF embryos were carried out using a SMZ-10A stereo microscope (Nicon, City, State), once every 30 minutes within the first 3 hours of incubation and at 6, 12 and 24 hours, as well. […] The stereo microscope was fitted with a specially designed transparent heating tray in order to keep embryos at ST during observations. Pictures of the embryos were taken with a H-III Photomicrographic System (Nicon) using Ektachrome 64X film (Kodak, Rochester, N.Y.).

U373 brain tumor cells [2] = test: Two-photon confocal laser scanning microscopy, DiA-labeled cells; assay type: cell-based, human; details: for cell morphology: U373, 100 μM
Experimental: In some experiments, COBRA-1 treated brain tumor cells were labeled with the membrane dye DiA and imaged using multiphoton microscopy. The individual tumor cells were imaged 1 hour before adding 100 μM COBRA- 1. The total imaging period was 3 hours.
U373 brain tumor cells were labeled with the membrane dye DiA and imaged using two-photon microscopy.
Arrows denote membrane ruffles formed in the direction that the cell is crawling. Arrowheads denote the trailing edge or the edge where the cell is retracting. The cell was imaged 1 hour before adding 100 μM DDE261 (FIG. 9A). […] The cell continued to shrink throughout the 3 hour imaging period (FIGS. 9E and 9F). The white material in the color photographs is the dye, DiA. The Scale Bar denotes 20 microns.

U373 brain tumor cells [3] = test: Cytotoxicity by confocal microscopy (tubulin immunofluorescence); assay type: cell-based, human
Experimental: (§5) Cells were incubated at 37° C. for the indicated time periods with the title compounds. At the end of the incubation, cells were washed twice with PBS and fixed in 2% paraformaldehyde. The cells were permeabilized and non-specific binding sites were blocked with 2.5% BSA in PBS containing 0.1% Triton X-100 for 30 minutes. Tubulin expression was examined by immunofluorescence using a monoclonal antibody against α-tubulin (Sigma Chemical Co, St. Louis, Mo.) at a dilution of 1:1000 and an anti-mouse IgG conjugated to FITC. Cells were washed in PBS and counterstained with toto-3 (Molecular Probes Inc., Eugene, Oreg.) for 10 minutes at a dilution of 1:1000. Cells were washed again with PBS and the coverslips were mounted with Vectashield (Vector Labs, Burlingame, Calif.) and viewed with a confocal microscope (Bio-Rad MRC 1024) mounted in a Nikon Labhophot upright microscope. Digital images were saved on a Jaz disk and processed with Adobe Photoshop software (Adobe Systems, Mountain View, Calif.).
(§6) The ultrastructural changes in human breast and glioblastoma cancer cells treated with COBRA-1 or COBRA-2 were examined by confocal microscopy and by transmission electron microscopy, using methods previously reported^19.

[4] = tested on: BT-20 breast cancer cells; test: as above; assay type: cell-based, human
Experimental: as §5, §6

human tumor cell lines = test: MTT assays, panel of human tumor cell lines (overall statement); assay type: cell-based; details: 0.1 to 250 μM
Experimental: as §1
as §2, with “The formazan crystals were solubilized overnight at 37° C. in a solution containing 10% SDS in 0.01 M HCl.” left out, “To translate the OD 540 values into the number of live cells in each well, the OD540 values were compared to those on standard OD540-versus-cell number curves generated for each cell line.” left out, “number[control]. […]” for “number[control].”

Molecule C[C@@H](O)[C@H]1CC[C@H](CO)O1 [Compound 8.3] has an IC50 (U87; Homo sapiens, U-87 MG) greater than 250 µM, an IC50 (PC-3; Homo sapiens) greater than 250 µM and an IC50 (MDA-MB-231; Homo sapiens) greater than 250 µM. It also gave an IC50 (NALM-6; Homo sapiens) greater than 250 µM and an IC50 (SQ20B; Homo sapiens) greater than 250 µM.
CCCCCCCCCCCC[C@@H](O)[C@H]1CC[C@H](CO)O1 [COBRA-1] was tested, and the ultrastructural changes (Nalm-6 leukemia cells) was “nuclear fragmentation, chromatin condensation, and formation of multiple autophagosomes, consistent with apoptosis”, the “effect on GTP-dependent tubulin polymerization (turbidity)” value (from here on “effect … (turbidity)”) (Bovine brain tubulin) was “caused partial depolymerization of tubulin and inhibited its polymerization in the presence of GTP” and the IC50 (U87) was 107 µM. It also gave an IC50 (PC-3) of 171 µM, an IC50 (MDA-MB-231) of 77 µM and an IC50 (NALM-6) of 49 µM. For the same molecule, the “effect on ZF embryo” value ([1]; 200 μM, 30 minutes) was “start of cell fusion”, the “effect on ZF embryo” value ([1]; 200 μM, 60 minutes) was “cell division blockade, total fusion and developmental arrest” and the “effect on ZF embryo” value ([1]; 400 μM, 30 minutes) was “deterioration of cell division and start of cell fusion”. For the same molecule, the “effect on ZF embryo” value ([1]; 400 μM, 60 minutes) was “cell division blockade, total fusion and developmental arrest”, the “effect on two-cell stage ZF embryos” value ([1]; 200 and 400 μM) was “developed normally for 30 minutes, up to the 8-cell stage, and then showed an immediate arrest of proliferation followed by cell fusion” and the cell morphology (U373 brain tumor cells [2]; after 1 hour) was “only trailing edges are present”. The cell morphology (U373 brain tumor cells [2]; within 40 minutes of drug addition) was “only one membrane ruffle is still evident”, the “onset of induced apoptosis after exposure” value (U373 brain tumor cells [2]; tumor cells (U373)) was “approximately 1 hour” and the “time to total destruction” value (U373 brain tumor cells [2]; tumor cells (U373)) was no more than 24 h. For the same molecule, the “cell morphology / microtubules” value (U373 brain tumor cells [3]; U373, 100 μM) was “induces abnormal tubulin structures”, the “cell morphology / microtubules” value (U373 brain tumor cells [3]; U373, 200 μM) was “cell death with nuclear fragmentation and complete loss of microtubule formation” and the “cell morphology / microtubules” value ([4]; BT-20, 100 μM, 24 hours) was “the cells shrink and the microtubules become less organized”. For the same molecule, the “cell morphology / microtubules” value ([4]; BT-20, 200 μM) was “cell death with nuclear fragmentation and complete loss of microtubule formation”, the IC50 (SQ20B) was 140 µM and the “inhibition of all cell lines” value (human tumor cell lines) was “inhibited by COBRA-1 in a dose-dependent fashion”.
For CCCCCCCCCCCC[C@@H](O)[C@H]1CC[C@H]([C@@H](O)CO)O1 [COBRA-4], the “effect … (turbidity)” value (Bovine brain tubulin) was “caused partial depolymerization of tubulin and completely inhibited its polymerization in the presence of GTP”.
In the case of CC(=O)O[C@H]1C(=O)[C@@]2(C)[C@H]([C@H](OC(=O)c3ccccc3)[C@]3(O)C[C@H](OC(=O)[C@H](O)[C@@H](NC(=O)c4ccccc4)c4ccccc4)C(C)=C1C3(C)C)[C@]1(OC(C)=O)CO[C@@H]1C[C@@H]2O [paclitaxel, reference compound], the “effect on ZF embryos” value ([1]; 400 μM in EM) is reported as “developmental abnormalities after 90 minutes of exposure”.
For CC[C@]1(O)C[C@H]2CN(CCc3c([nH]c4ccccc34)[C@@](C(=O)OC)(c3cc4c(cc3OC)N(C=O)[C@H]3[C@@](O)(C(=O)OC)[C@H](OC(C)=O)[C@]5(CC)C=CCN6CC[C@]43[C@@H]65)C2)C1 [vincristine, reference compound], the “effect on ZF embryos” value ([1]; 100 μM in EM or HBSS) was “rapid total cell division blockade, cell fusion and developmental arrest” and the “time until two-cell stage embryos stopped cleaving” value ([1]; 100 μM in EM or HBSS) was no more than 15 min.
In the case of CN(Cc1cnc2nc(N)nc(N)c2n1)c1ccc(C(=O)N[C@@H](CCC(=O)O)C(=O)O)cc1 [methotrexate, reference compound], the effect on gastrulation ([1]; 1-4 mM) is reported as “failed to gastrulate” and the “effect on cell division during cleavage and blastula stages” value ([1]; by 4 hours of incubation) is reported as “no visible effect”.
For C=CCC[C@H](O)[C@H]1CC[C@H]([C@H](O)CCCCCCCCCCCC)O1 [COBRA-2], the “effect … (turbidity)” value (Bovine brain tubulin) was “caused partial depolymerization of tubulin and inhibited its polymerization in the presence of GTP”, the “cell morphology / microtubules” value (U373 brain tumor cells [3]; U373, 100-200 μM) was “cell death with nuclear fragmentation and complete loss of microtubule formation” and the “cell morphology / microtubules” value (U373 brain tumor cells [3]; U373, 24 hours (FIG. 10E)) was “the cells shrink and the microtubules become less organized”. For the same molecule, the “cell morphology / microtubules” value ([4]; BT-20, 100-200 μM) was “cell death with nuclear fragmentation and complete loss of microtubule formation” and the “cell morphology / microtubules” value ([4]; BT-20, 24 hours (FIG. 10B)) was “the cells shrink and the microtubules become less organized”.
OC(CSOOc1ccccc1)C1CCC(COCc2ccccc2)O1 (centres unmarked) [Compound 8.2] was tested, and the IC50 (U87; Homo sapiens, U-87 MG) was greater than 250 µM, the IC50 (PC-3; Homo sapiens) was greater than 250 µM and the IC50 (MDA-MB-231; Homo sapiens) was greater than 250 µM. For the same molecule, the IC50 (NALM-6; Homo sapiens) was greater than 250 µM and the IC50 (SQ20B; Homo sapiens) was greater than 250 µM.
OCC(O)[C@H]1CC[C@H](CO)O1 (some centres unmarked) [Compound 8.4] showed an IC50 (U87; Homo sapiens, U-87 MG) greater than 250 µM, an IC50 (PC-3; Homo sapiens) greater than 250 µM and an IC50 (MDA-MB-231; Homo sapiens) greater than 250 µM. The IC50 (NALM-6; Homo sapiens) was greater than 250 µM and the IC50 (SQ20B; Homo sapiens) was greater than 250 µM.
